Results taken from ChEMBL document CHEMBL4507320, “Data for DCP probe NVS-MALT1” (2021).

Tests used:
[1] = molecular target: Mitogen-activated protein kinase kinase kinase 2 (Homo sapiens) (UniProt Q9Y2U5); settings: Compound concentration 1000.0 nM
[2] = molecular target: Tyrosine-protein kinase ABL1 (Homo sapiens) (UniProt P00519); settings: Compound concentration 1000.0 nM
[3] = molecular target: Cyclin-dependent kinase 5 (Homo sapiens) (UniProt Q00535); settings: Compound concentration 1000.0 nM
[4] = tested on: Proto-oncogene tyrosine-protein kinase receptor Ret (Homo sapiens), P07949 [V804L]; settings: Compound concentration 1000.0 nM
Chain of Proto-oncogene tyrosine-protein kinase receptor Ret (Homo sapiens), P07949 [V804L] (P07949 whole entry V804L): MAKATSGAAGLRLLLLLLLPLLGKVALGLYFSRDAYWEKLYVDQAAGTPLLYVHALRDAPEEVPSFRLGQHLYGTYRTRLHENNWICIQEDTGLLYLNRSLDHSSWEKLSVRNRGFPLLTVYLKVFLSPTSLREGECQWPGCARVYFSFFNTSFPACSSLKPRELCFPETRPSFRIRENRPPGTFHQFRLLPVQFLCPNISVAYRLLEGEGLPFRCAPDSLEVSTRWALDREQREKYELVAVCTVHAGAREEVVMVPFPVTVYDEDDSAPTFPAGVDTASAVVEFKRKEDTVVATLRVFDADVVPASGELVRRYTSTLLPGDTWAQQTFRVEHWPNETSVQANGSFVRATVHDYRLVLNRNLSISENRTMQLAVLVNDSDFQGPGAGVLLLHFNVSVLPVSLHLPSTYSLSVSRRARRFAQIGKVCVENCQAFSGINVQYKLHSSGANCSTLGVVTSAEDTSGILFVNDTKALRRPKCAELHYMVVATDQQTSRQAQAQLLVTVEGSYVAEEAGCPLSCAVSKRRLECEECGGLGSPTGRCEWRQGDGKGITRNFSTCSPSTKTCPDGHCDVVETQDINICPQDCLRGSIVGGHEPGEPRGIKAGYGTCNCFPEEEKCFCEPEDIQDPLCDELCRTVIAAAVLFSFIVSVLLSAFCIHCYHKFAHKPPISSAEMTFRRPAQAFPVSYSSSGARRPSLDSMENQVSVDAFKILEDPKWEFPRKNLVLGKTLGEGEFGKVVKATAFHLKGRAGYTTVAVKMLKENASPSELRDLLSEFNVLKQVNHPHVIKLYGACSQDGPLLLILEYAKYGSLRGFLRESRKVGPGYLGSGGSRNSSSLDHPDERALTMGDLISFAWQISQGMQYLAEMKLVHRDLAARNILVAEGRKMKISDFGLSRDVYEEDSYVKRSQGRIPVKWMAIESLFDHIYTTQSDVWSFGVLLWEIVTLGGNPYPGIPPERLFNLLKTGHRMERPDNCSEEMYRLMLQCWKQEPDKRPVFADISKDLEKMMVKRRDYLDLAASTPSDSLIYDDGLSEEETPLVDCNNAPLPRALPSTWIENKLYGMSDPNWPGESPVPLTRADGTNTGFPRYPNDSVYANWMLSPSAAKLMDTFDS

[5] = tested on: Epidermal growth factor receptor (Homo sapiens), P00533 [UNDEFINED MUTATION]; settings: Compound concentration 1000.0 nM
[6] = molecular target: Serine/threonine-protein kinase Nek3 (Homo sapiens) (UniProt P51956); settings: Compound concentration 1000.0 nM
Chain of Serine/threonine-protein kinase Nek3 (Homo sapiens) (P51956 whole entry): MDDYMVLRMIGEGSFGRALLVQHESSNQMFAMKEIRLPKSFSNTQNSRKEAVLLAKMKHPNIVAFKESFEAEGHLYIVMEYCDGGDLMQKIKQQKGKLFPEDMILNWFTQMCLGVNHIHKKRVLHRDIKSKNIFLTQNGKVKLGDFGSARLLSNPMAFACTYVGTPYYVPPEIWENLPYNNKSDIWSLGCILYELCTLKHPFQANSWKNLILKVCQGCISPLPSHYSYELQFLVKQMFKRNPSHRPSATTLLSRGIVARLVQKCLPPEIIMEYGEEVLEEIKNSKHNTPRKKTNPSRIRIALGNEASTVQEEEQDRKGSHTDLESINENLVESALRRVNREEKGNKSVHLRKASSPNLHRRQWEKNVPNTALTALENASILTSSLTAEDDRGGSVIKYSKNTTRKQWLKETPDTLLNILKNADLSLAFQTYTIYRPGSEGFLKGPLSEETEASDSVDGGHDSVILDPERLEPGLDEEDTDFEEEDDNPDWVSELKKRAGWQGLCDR

[7] = tested on: Epidermal growth factor receptor (Homo sapiens), P00533 [UNDEFINED MUTATION]; settings: Compound concentration 1000.0 nM; remark: listed apart in the source
[8] = molecular target: Tyrosine-protein kinase BTK (Homo sapiens) (UniProt Q06187); settings: Compound concentration 1000.0 nM
[9] = molecular target: Death-associated protein kinase 1 (Homo sapiens) (UniProt P53355); settings: Compound concentration 1000.0 nM
[10] = molecular target: Cyclin-dependent kinase 19 (Homo sapiens) (UniProt Q9BWU1); settings: Compound concentration 1000.0 nM
[11] = molecular target: Tyrosine-protein kinase Yes (Homo sapiens) (UniProt P07947); settings: Compound concentration 1000.0 nM
Chain of Tyrosine-protein kinase Yes (Homo sapiens) (P07947 2-543 limits assumed): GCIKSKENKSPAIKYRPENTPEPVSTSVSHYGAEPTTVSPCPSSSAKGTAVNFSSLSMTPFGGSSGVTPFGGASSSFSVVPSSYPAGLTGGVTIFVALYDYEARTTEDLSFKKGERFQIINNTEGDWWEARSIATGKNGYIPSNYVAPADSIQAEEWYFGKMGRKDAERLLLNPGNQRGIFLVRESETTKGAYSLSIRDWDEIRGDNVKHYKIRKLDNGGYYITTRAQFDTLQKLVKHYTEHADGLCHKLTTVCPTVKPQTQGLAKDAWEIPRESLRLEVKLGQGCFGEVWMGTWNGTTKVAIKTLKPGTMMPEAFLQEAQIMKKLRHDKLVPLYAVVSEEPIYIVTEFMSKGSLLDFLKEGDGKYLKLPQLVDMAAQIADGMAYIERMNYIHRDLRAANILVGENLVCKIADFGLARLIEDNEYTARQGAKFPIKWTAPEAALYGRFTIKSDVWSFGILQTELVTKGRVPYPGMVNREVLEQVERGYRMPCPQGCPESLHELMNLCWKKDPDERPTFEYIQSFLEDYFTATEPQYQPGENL

[12] = molecular target: MAP kinase-activated protein kinase 5 (Homo sapiens) (UniProt Q8IW41); settings: Compound concentration 1000.0 nM
[13] = molecular target: Mast/stem cell growth factor receptor Kit (Homo sapiens) (UniProt P10721); settings: Compound concentration 1000.0 nM
[14] = molecular target: Serine/threonine-protein kinase ULK1 (Homo sapiens) (UniProt O75385); settings: Compound concentration 1000.0 nM
[15] = molecular target: Ephrin type-A receptor 1 (Homo sapiens) (UniProt P21709); settings: Compound concentration 1000.0 nM
[16] = molecular target: Serine/threonine-protein kinase TAO2 (Homo sapiens) (UniProt Q9UL54); settings: Compound concentration 1000.0 nM
[17] = molecular target: Tyrosine-protein kinase ABL1 (Homo sapiens) (UniProt P00519); settings: Compound concentration 1000.0 nM; remark: listed apart in the source
[18] = molecular target: GABA-A receptor; anion channel (Rattus norvegicus) (UniProt O09028+P15431+P18506+P18508+P19969+P20236+P23574+P23576+P28471+P28473+P30191+P62813+P63079+P63138+Q91ZM7+Q9ES14); settings: Compound concentration 10.0 uM
[19] = molecular target: Histamine H4 receptor (Homo sapiens) (UniProt Q9H3N8); settings: Compound concentration 10.0 uM
Chain of Histamine H4 receptor (Homo sapiens) (Q9H3N8 whole entry): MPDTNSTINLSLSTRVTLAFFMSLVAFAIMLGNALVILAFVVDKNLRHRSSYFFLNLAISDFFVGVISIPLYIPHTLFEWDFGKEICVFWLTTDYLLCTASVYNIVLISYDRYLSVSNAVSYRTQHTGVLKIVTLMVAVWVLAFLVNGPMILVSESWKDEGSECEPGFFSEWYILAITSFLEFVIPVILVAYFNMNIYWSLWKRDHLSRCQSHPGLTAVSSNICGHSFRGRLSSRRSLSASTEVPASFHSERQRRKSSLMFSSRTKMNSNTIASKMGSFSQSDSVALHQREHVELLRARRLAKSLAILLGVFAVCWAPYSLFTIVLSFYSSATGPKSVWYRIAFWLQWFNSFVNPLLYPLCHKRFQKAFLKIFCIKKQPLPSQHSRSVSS

[20] = molecular target: Cyclin-dependent kinase 3 (Homo sapiens) (UniProt Q00526); settings: Compound concentration 1000.0 nM
[21] = tested on: Epidermal growth factor receptor (Homo sapiens), P00533 [G719S]; settings: Compound concentration 1000.0 nM
[22] = molecular target: Calcium/calmodulin-dependent protein kinase type II subunit beta (Homo sapiens) (UniProt Q13554); settings: Compound concentration 1000.0 nM
[23] = molecular target: Homeodomain-interacting protein kinase 3 (Homo sapiens) (UniProt Q9H422); settings: Compound concentration 1000.0 nM
[24] = molecular target: Aurora kinase B (Homo sapiens) (UniProt Q96GD4); settings: Compound concentration 1000.0 nM
[25] = molecular target: Casein kinase I isoform alpha (Homo sapiens) (UniProt P48729); settings: Compound concentration 1000.0 nM
[26] = molecular target: STE20-like serine/threonine-protein kinase (Homo sapiens) (UniProt Q9H2G2); settings: Compound concentration 1000.0 nM
Chain of STE20-like serine/threonine-protein kinase (Homo sapiens) (Q9H2G2 whole entry, looked up): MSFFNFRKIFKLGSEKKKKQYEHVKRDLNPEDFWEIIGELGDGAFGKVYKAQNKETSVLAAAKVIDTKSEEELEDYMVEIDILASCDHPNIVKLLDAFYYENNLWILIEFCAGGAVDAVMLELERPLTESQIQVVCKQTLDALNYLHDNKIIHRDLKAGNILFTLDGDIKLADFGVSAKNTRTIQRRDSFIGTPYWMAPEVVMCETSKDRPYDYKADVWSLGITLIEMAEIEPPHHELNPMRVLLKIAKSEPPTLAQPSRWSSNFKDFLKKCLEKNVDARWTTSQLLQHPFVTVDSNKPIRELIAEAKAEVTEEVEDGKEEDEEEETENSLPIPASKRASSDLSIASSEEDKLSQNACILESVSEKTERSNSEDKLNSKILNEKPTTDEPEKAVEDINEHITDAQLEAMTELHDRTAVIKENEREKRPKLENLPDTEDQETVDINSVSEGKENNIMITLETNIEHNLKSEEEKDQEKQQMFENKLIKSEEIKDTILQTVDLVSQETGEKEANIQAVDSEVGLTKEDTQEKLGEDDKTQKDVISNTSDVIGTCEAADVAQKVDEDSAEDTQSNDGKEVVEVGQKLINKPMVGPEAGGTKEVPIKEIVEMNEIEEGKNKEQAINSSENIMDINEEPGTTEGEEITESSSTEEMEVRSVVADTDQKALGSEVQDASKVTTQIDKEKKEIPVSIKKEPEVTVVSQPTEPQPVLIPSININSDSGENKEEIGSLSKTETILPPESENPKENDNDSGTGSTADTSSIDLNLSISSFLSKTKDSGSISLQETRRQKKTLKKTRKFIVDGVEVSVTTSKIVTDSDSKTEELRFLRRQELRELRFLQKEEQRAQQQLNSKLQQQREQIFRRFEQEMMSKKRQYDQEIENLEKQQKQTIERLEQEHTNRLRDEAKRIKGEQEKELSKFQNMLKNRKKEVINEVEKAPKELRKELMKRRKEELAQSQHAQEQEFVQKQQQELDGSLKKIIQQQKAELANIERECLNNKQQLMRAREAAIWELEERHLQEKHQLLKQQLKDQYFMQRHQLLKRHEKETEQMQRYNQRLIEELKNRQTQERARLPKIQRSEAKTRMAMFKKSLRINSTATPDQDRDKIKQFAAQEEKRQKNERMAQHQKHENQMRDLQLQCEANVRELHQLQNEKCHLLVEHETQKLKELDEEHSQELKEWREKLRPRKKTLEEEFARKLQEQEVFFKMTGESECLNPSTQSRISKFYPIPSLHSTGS

[27] = molecular target: Serine/threonine-protein kinase Sgk1 (Homo sapiens) (UniProt O00141); settings: Compound concentration 1000.0 nM
[28] = molecular target: Mitotic checkpoint serine/threonine-protein kinase BUB1 (Homo sapiens) (UniProt O43683); settings: Compound concentration 1000.0 nM
[29] = molecular target: Serine/threonine-protein kinase RIO1 (Homo sapiens) (UniProt Q9BRS2); settings: Compound concentration 1000.0 nM
Chain of Serine/threonine-protein kinase RIO1 (Homo sapiens) (Q9BRS2 whole entry): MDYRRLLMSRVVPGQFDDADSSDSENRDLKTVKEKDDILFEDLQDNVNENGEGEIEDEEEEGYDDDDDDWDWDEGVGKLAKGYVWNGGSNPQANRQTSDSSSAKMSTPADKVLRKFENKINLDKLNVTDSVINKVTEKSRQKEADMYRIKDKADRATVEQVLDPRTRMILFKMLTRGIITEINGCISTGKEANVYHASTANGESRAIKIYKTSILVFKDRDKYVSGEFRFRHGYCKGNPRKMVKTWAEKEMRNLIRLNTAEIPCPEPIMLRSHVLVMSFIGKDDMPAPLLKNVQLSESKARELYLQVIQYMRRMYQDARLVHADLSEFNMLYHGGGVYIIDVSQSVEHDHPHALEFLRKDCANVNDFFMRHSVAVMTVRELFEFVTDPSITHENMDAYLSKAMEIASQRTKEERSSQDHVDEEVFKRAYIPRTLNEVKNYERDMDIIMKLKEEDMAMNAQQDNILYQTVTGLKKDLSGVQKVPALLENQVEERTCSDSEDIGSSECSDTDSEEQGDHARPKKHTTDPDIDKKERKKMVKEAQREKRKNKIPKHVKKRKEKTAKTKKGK

[30] = molecular target: Serine/threonine-protein kinase LATS2 (Homo sapiens) (UniProt Q9NRM7); settings: Compound concentration 1000.0 nM
[31] = molecular target: Protein-tyrosine kinase 6 (Homo sapiens) (UniProt Q13882); settings: Compound concentration 1000.0 nM
[32] = molecular target: Serine/threonine-protein kinase ICK (Homo sapiens) (UniProt Q9UPZ9); settings: Compound concentration 1000.0 nM
[33] = molecular target: Calcium/calmodulin-dependent protein kinase type 1D (Homo sapiens) (UniProt Q8IU85); settings: Compound concentration 1000.0 nM
[34] = molecular target: Serine/threonine-protein kinase SBK1 (Homo sapiens) (UniProt Q52WX2); settings: Compound concentration 1000.0 nM
[35] = molecular target: Proto-oncogene tyrosine-protein kinase Src (Homo sapiens) (UniProt P12931); settings: Compound concentration 1000.0 nM
[36] = molecular target: cAMP-dependent protein kinase catalytic subunit alpha (Homo sapiens) (UniProt P17612); settings: Compound concentration 1000.0 nM
[37] = molecular target: Glycogen synthase kinase-3 alpha (Homo sapiens) (UniProt P49840); settings: Compound concentration 1000.0 nM
[38] = molecular target: ALK tyrosine kinase receptor (Homo sapiens) (UniProt Q9UM73); settings: Compound concentration 1000.0 nM
[39] = molecular target: Alpha-1B adrenergic receptor (Homo sapiens) (UniProt P35368); settings: Compound concentration 10.0 uM
[40] = molecular target: Dual specificity mitogen-activated protein kinase kinase 1 (Homo sapiens) (UniProt Q02750); settings: Compound concentration 1000.0 nM
[41] = molecular target: Bone morphogenetic protein receptor type-1B (Homo sapiens) (UniProt O00238); settings: Compound concentration 1000.0 nM
[42] = molecular target: Phosphatidylinositol 4,5-bisphosphate 3-kinase catalytic subunit beta isoform (Homo sapiens) (UniProt P42338); settings: Compound concentration 1000.0 nM
[43] = molecular target: Ankyrin repeat and protein kinase domain-containing protein 1 (Homo sapiens) (UniProt Q8NFD2); settings: Compound concentration 1000.0 nM
[44] = tested on: Tyrosine-protein kinase ABL1 (Homo sapiens), P00519 [T315I]; settings: Compound concentration 1000.0 nM

Chain of Mitogen-activated protein kinase kinase kinase 2 (Homo sapiens) (Q9Y2U5 whole entry): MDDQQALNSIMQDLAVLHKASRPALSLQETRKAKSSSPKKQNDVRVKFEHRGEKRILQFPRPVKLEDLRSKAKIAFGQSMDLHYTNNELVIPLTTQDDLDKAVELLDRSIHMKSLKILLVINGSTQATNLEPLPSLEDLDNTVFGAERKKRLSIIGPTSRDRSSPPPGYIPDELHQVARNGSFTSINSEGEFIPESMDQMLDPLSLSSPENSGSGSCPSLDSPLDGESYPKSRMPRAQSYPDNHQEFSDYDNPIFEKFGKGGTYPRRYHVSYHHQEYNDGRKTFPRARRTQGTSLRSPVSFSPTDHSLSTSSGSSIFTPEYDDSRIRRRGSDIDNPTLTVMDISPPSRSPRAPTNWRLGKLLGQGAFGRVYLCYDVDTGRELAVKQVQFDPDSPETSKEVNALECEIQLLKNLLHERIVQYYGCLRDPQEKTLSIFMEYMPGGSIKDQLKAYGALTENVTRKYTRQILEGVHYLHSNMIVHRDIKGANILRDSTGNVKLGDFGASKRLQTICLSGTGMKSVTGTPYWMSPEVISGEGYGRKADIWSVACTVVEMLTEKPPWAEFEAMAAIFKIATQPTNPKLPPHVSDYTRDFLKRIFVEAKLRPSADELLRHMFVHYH

CO[C@@H](C)c1c(Nc2ccc([C@H](N(C)C(=O)C3CCS(=O)(=O)CC3)C(F)(F)F)cc2)cnc2cc(Cl)nn12 [NVS-MALT1]
active: residual activity [6] 40%
inactive: residual activity [1] 100% | residual activity [2] 63% | residual activity [3] 96% | residual activity [4] 86% | residual activity [5] 100% | residual activity [7] 99% | residual activity [8] 100% | residual activity [9] 88% | residual activity [10] 73% | residual activity [11] 99% | residual activity [12] 100% | residual activity [13] 98% | residual activity [14] 100% | residual activity [15] 100% | residual activity [16] 88% | residual activity [17] 59% | inhibition [18] 27.9% | inhibition [19] 3.84% | residual activity [20] 90% | residual activity [21] 100% | residual activity [22] 94% | residual activity [23] 100% | residual activity [24] 91% | residual activity [25] 51% | residual activity [26] 81% | residual activity [27] 94% | residual activity [28] 100% | residual activity [29] 85% | residual activity [30] 100% | residual activity [31] 81% | residual activity [32] 70% | residual activity [33] 99% | residual activity [34] 100% | residual activity [35] 99% | residual activity [36] 90% | residual activity [37] 86% | residual activity [38] 100% | inhibition [39] 27.6% | residual activity [40] 100% | residual activity [41] 100% | residual activity [42] 65% | residual activity [43] 100% | residual activity [44] 100%

CO[C@@H](C)c1c(Nc2ccc([C@@H](N(C)C(=O)C3CCS(=O)(=O)CC3)C(F)(F)F)cc2)cnc2cc(Cl)nn12 [NVS-MALT1-C]
inactive: residual activity [1] 100% | residual activity [2] 74% | residual activity [3] 99% | residual activity [4] 78% | residual activity [5] 100% | residual activity [6] 61% | residual activity [7] 87% | residual activity [8] 100% | residual activity [9] 89% | residual activity [10] 81% | residual activity [11] 100% | residual activity [12] 100% | residual activity [13] 85% | residual activity [14] 100% | residual activity [15] 97% | residual activity [16] 94% | residual activity [17] 59% | inhibition [18] 19.2% | inhibition [19] -8.46% | residual activity [20] 88% | residual activity [21] 96% | residual activity [22] 96% | residual activity [23] 100% | residual activity [24] 74% | residual activity [25] 72% | residual activity [26] 83% | residual activity [27] 89% | residual activity [28] 100% | residual activity [29] 91% | residual activity [30] 88% | residual activity [31] 100% | residual activity [32] 96% | residual activity [33] 100% | residual activity [34] 100% | residual activity [35] 98% | residual activity [36] 87% | residual activity [37] 94% | residual activity [38] 100% | inhibition [39] 5.97% | residual activity [40] 100% | residual activity [41] 100% | residual activity [42] 72% | residual activity [43] 100% | residual activity [44] 100%
